From ChEMBL document CHEMBL3991601, “The target landscape of clinical kinase drugs” (Science, 2017)
Calls of active or inactive are those of the source. Rule as the data show it, for most assays here: actives have a measured Kd and inactives only a lower limit.

Assays:
[1] = molecular target: T1, Long-chain-fatty-acid--CoA ligase 5 (Homo sapiens, UniProt Q9ULC5)
T1 sequence (Q9ULC5 whole entry): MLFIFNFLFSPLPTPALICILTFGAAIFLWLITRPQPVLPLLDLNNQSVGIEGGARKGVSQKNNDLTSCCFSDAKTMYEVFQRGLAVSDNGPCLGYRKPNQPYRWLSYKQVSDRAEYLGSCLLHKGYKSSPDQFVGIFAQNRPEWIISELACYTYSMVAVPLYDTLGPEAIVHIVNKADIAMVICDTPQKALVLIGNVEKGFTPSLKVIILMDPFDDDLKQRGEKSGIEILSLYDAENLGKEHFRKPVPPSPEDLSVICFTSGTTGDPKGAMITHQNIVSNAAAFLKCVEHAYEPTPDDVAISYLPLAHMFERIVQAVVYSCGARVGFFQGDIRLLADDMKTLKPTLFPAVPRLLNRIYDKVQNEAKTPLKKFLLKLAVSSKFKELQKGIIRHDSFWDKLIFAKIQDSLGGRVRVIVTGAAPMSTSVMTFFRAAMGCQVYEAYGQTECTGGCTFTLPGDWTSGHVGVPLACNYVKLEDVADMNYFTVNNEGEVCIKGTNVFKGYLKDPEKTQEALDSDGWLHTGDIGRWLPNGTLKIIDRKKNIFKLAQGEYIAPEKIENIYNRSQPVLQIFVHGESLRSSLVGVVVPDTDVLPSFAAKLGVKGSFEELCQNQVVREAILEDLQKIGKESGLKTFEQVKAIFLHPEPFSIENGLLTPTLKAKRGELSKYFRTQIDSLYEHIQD

[2] = molecular target: T2, Breakpoint cluster region protein (Homo sapiens, UniProt P11274)
T2 sequence (P11274 whole entry): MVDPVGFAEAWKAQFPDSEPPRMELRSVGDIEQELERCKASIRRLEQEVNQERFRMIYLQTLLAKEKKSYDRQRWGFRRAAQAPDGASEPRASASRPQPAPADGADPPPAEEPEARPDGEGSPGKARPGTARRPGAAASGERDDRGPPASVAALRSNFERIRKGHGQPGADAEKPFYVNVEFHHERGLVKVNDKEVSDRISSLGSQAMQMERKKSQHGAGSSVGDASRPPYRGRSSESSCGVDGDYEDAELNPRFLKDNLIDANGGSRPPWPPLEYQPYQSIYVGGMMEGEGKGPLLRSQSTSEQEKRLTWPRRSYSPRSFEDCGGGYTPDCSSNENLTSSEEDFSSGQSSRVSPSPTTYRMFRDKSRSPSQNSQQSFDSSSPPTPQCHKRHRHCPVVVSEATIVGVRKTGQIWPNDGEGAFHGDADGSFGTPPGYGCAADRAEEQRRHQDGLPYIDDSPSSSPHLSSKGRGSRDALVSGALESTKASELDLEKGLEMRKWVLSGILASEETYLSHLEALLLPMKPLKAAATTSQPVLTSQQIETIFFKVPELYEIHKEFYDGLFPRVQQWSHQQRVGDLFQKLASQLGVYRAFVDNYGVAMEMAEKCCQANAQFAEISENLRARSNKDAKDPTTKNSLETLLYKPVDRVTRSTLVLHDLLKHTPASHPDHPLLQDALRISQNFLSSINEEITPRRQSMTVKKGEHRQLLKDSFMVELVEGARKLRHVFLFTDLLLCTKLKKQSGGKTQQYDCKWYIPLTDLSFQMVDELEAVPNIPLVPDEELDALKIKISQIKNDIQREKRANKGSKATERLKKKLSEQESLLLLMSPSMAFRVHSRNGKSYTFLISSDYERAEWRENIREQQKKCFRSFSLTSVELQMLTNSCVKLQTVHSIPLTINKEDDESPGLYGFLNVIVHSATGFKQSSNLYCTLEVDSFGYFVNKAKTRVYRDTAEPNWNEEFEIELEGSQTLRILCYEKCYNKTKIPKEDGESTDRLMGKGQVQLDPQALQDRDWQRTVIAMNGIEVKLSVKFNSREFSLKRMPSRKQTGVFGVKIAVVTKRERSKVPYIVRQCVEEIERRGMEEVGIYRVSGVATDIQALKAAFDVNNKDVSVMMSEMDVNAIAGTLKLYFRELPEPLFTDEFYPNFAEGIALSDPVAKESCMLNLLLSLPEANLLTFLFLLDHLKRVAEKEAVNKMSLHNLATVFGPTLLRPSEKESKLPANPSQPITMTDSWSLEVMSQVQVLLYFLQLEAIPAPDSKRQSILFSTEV

[3] = molecular target: Tyrosine-protein kinase Lyn (Homo sapiens, UniProt P07948)
Chain of Tyrosine-protein kinase Lyn (P07948 whole entry): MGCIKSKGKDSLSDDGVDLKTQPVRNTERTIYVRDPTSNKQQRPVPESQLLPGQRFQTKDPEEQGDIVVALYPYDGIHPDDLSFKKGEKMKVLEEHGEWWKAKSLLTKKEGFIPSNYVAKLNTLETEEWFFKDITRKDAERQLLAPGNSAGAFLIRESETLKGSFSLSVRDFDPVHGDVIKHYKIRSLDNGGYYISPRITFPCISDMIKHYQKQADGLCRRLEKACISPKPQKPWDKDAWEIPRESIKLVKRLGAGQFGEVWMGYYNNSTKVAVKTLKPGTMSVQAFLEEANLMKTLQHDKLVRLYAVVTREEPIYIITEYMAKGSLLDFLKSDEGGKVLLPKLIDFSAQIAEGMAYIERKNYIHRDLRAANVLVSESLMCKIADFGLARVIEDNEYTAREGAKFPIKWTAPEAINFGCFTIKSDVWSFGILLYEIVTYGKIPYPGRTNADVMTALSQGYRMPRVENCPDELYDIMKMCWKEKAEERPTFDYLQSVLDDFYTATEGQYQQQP

[4] = molecular target: cAMP-dependent protein kinase catalytic subunit gamma (Homo sapiens, UniProt P22612)
Chain of cAMP-dependent protein kinase catalytic subunit gamma (P22612 whole entry): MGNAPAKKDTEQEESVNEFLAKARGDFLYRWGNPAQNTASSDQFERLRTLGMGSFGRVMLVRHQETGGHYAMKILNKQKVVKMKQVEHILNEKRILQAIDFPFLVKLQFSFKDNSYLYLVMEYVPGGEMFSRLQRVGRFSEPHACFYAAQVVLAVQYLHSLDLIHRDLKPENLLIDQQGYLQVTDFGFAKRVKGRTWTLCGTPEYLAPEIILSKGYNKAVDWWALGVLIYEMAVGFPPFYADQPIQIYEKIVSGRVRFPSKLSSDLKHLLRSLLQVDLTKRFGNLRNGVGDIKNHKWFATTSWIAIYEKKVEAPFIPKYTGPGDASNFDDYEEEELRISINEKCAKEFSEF

[5] = molecular target: Protein kinase C alpha type (Homo sapiens, UniProt P17252)
[6] = molecular target: T3, Ras-related protein Rab-10 (Homo sapiens, UniProt P61026)
T3 sequence (P61026 whole entry): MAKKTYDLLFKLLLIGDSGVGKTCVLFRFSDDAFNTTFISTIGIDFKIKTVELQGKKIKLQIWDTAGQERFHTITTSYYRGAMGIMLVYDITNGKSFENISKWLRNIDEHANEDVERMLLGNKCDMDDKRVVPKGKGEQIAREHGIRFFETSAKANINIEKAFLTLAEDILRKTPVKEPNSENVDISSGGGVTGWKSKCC

[7] = molecular target: Mitogen-activated protein kinase kinase kinase 20 (Homo sapiens, UniProt Q9NYL2)
Chain of Mitogen-activated protein kinase kinase kinase 20 (Q9NYL2 whole entry): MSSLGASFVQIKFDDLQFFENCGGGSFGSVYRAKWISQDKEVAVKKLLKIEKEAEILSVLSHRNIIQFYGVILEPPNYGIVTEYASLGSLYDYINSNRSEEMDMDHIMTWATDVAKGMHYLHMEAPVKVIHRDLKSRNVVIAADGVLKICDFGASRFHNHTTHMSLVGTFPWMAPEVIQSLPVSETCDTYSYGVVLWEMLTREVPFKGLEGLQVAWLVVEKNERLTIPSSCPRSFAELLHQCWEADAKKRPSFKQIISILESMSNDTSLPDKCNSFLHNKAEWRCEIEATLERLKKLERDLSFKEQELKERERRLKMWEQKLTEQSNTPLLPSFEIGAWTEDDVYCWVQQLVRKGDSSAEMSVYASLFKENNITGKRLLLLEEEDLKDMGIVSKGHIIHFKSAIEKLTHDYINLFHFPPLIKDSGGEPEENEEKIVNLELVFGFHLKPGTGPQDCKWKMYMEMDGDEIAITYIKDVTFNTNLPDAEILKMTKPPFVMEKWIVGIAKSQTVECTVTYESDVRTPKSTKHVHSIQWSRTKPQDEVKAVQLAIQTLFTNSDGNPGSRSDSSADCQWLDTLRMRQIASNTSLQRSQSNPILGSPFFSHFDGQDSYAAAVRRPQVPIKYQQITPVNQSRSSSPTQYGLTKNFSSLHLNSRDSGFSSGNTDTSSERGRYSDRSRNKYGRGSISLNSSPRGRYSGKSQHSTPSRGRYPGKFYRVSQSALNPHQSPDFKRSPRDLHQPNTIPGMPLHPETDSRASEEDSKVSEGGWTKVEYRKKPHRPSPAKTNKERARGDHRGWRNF
Also: in the data inactive means no Kd found up to 30 µM.

| SMILES | Kd [1] | Kd [2] | Kd [3] | Kd [4] | Kd [5] | Kd [6] | Kd [7] |
| --- | --- | --- | --- | --- | --- | --- | --- |
| CCN(CCCOc1ccc2c(Nc3cc(CC(=O)Nc4cccc(F)c4)n[nH]3)ncnc2c1)CCOP(=O)(O)O [BARASERTIB] | > 30 µM (inactive) | > 30 µM (inactive) | 3.63 µM (active) | > 30 µM (inactive) | > 30 µM (inactive) | > 30 µM (inactive) | > 30 µM (inactive) |
| FC(F)(F)c1ccc(CNc2ccc(Cc3c[nH]c4ncc(Cl)cc34)cn2)cn1 [PEXIDARTINIB] | > 30 µM (inactive) | > 30 µM (inactive) | > 30 µM (inactive) | > 30 µM (inactive) | > 30 µM (inactive) | > 30 µM (inactive) | > 30 µM (inactive) |
